“Also recorded” adds a separate entry of the source.

Assay [1] addresses T1, STAT3 (Homo sapiens, UniProt P40763). In words: EGF-stimulated STAT3 phosphorylation in MDA-MB-468 cells. The note with it: 1.5 hr prodrug, then EGF 100 ng/mL 30 min. Set-up: host or cells: MDA-MB-468 breast tumor cells. It is filed as cell-based. On the procedure: (§1) Effect of prodrug on the phosphorylation of STAT3, STAT5 and Akt in response to Epidermal Growth Factor stimulation. MDA-MB-468 cells were prepared as above. Prodrugs were prepared as 10 mM stock solutions in DMSO and aliquots were added to the culture media to give the correct final concentrations. After 1.5 hr EGF was added at 100 ng/mL. After 30 minutes cells were collected and lysed and proteins were separated by PAGE and transferred to three PVDF filters as above. The first filter was blocked with 5% bovine serum albumin and probed for total and phosphoStat3 as above. The second filter was probed for phosphoSer473Akt and total Akt using appropriate antibodies and similar detection procedures to those used for STAT3. The third filter was probed for phosphoTyr699 Stat5 and total STAT5 using appropriate antibodies and similar detection procedures to those used for STAT3.

Assay [2] relates to Focal Adhesion Kinase (FAK). In words: Phosphorylation of Focal Adhesion Kinase Tyr861 in MDA-MB-468 cells. The note with it: 2 hr treatment. It is filed as cell-based, human. The text has this: Effect of Prodrug on the phosphorylation of Focal Adhesion Kinase (FAK) in MDA-MB-468 breast tumor cells. MDA-MB-468 cells express constitutive phosphorylation of Tyr861 of FAK (Laird, A. et al., Src Family Kinase Activity is Required For Signal Tranducer and Activator of Transcription 3 and Focal Adhesion Kinase Phosphorylation and Vascular Endothelial Growth Factor Signaling In Vivo and For Anchorage-Dependent and Independent Growth Of Human Tumor Cells, Mol Cancer Ther, 2, 461-9(2003). a unique substrate of Src upon recruitment via its SH2 domain (Calalb, M. B., et al, S. K. Focal adhesion kinase tyrosine-861 is a major site of phosphorylation by Src. Biochem Biophys Res Commun 1996, 228, 662-8 (1996.) To test for cross reactivity to the Src SH2 domain, MDA-MB-468 cell extracts were probed for phosphorylation of Tyr861 of FAK.

For assay [3], the target named is T1, STAT3. In words: Inhibition of Stat3 tyrosine705 phosphorylation in MDA-MB-468 cells. Further details: host or cells: MDA-MB-468 breast tumor cells. The note with it: 2 h; for inhibition of Tyr705 phosphorylation of Stat3 (potency in words): prodrug in DMSO. It is filed as cell-based. Here is the method: Inhibition of Stat3 tyrosine705 phosphorylation in MDA-MB-468 cells. MDA-MB-468 breast tumor cells (0.4×10^6) were plated onto 35 mm culture dishes and were allowed to grow overnight. Prodrugs were prepared as 10 mM stock solutions in DMSO and aliquots were added to the culture media to give the correct final concentrations. After 2 h the cells were washed with ice cold phosphate buffered saline. Washed cells were treated with lysis buffer (50 mM Hepes, pH 7.4, 150 mM NaCl, 1.5 mM MgCl2, 1 mM EGTA, 100 mM NaF, 10 mM sodium pyrophosphate, 10% glycerol, 1% Triton X-100, 1 mM PMSF, 1 mM Na3VO4, 10 μg/mL leupeptin and 10 μg/mL aprotinin). Cell-free detergent extracts were centrifuged at 15,000 rpm in a microcentriguge for 30 min at 4° C. and the protein concentrations of the supernatants determined. Aliquots containing 12 μg of protein were separated on 8% SDS-PAGE and were transferred to PVDF filters. The filters were blocked with 5% bovine serum albumin and were probed with pStat3^Y705 antibody followed by secondary antibody, whose signal was detected with an enhanced chemiluminescence kit (ECL, Amersham, Chicago, Ill.). Filters were stripped with stripping buffer (62.5 mM Tris, pH 6.8, 2% SDS, and 0.1 M 2-mercaptoethanol) at 50° C. for 30 min. Filters were then probed with total Stat3 antibody and visualized with chemiluminescence as above.

Assay [4] has as its system Akt. In words: EGF-stimulated Akt Ser473 phosphorylation in MDA-MB-468 cells. It is filed as cell-based, human. The note with it: 1.5 hr prodrug, then EGF 100 ng/mL 30 min. On the procedure: as §1
The subject of assay [5] is non-small cell lung cancer cell lines. Nature of the assay: Lung tumor cell viability assay, NSCLC cell lines. It is filed as cell-based. As to conditions: 0.25-5.0 μM in DMSO; 72 h. Here is the method:
Lung Tumor Cell Viability Assay: H1819, H1299 and H827 lung tumor cells were seeded in 6-well plates at a density of 6×10^4, 4×10^4 and 5×10^4 cells/well, respectively. Prodrugs were dissolved in DMSO to make a stock concentration of 500 μM. The following day the cells were treated either with DMSO alone or with 0.25 μM, 0.5 μM, 1.0 μM, 2.5 μM and 5.0 μM of the compounds from Example 1, Example 16, and Example 22. Seventy two h after treatment with the drug the cells were subjected to cell viability assay using trypan blue. […] Cells were plated and after 24 hr were treated with the compound of Example 16 in DMSO. After 72 hr, cells were counted. Note that vertical axes are different for each plot.

In assay [6] the test system is STAT5. In words: EGF-stimulated STAT5 phosphorylation in MDA-MB-468 cells. It is filed as cell-based, human. As to conditions: 1.5 hr prodrug, then EGF 100 ng/mL 30 min. On the procedure: as §1

T1 sequence (P40763 whole entry): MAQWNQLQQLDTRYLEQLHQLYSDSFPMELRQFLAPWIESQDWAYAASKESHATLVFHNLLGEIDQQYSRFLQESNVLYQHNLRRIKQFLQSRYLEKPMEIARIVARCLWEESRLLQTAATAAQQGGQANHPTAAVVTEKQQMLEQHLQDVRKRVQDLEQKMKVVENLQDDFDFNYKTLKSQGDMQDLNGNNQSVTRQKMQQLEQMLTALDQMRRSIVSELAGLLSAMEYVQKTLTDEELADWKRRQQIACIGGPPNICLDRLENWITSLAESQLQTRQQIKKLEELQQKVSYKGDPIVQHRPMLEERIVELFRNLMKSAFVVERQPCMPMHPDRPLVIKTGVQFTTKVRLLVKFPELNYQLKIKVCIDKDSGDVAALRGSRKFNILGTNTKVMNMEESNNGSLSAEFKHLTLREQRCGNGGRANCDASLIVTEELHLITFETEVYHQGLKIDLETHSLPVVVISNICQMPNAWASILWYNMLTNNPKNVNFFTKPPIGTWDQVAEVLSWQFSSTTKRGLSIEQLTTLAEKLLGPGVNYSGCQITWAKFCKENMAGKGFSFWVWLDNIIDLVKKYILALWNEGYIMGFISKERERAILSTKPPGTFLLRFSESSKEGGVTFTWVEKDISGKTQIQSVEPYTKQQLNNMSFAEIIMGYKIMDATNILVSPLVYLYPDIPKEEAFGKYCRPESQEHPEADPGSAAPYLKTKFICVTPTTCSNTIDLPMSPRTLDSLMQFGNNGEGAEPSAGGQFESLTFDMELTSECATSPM

In the case of `C/C(=C\C(=O)N[C@H]1CCc2cccc3c2N(C1=O)[C@H](C(=O)N[C@H](C)CCC(N)=O)C3)c1ccc(C(F)(F)P(=O)(OCOC(=O)C(C)(C)C)OCOC(=O)C(C)(C)C)cc1` [Example 1, (2E)-3-[4-[[bis[(2,2-dimethyl-1-oxopropoxy)methoxy]phosphinyl]difluoromethyl]phenyl]-but-2-enoyl-Haic-(R)-4-aminopentamide], in assay [1], the “EGF-induced increase in Stat3 phosphorylation” value was “effective at inhibiting”. Also, the “phosphorylation of FAK Tyr861” value in assay [2] is given as “no reduction; also recorded: do not inhibit”. Besides, in assay [3], the “concentration as low as which partial inhibition of STAT3 phosphorylation was seen” value was 10 nM, the “concentration at which complete inhibition of STAT3 phosphorylation occurred” value came to 500 nM and the “inhibition of Tyr705 phosphorylation of Stat3 (potency in words)” value was “very potent inhibitors”. Moreover, in assay [4], the “Akt Ser473 phosphorylation after EGF” value is “no effect”. Further, the “growth / viability of NSCLC cell lines” value in assay [5] is “inhibition”. For the same compound, the “Stat5 phosphorylation after EGF” value in assay [6] was “no effect”.

In the case of `CCCC[C@H](NC(=O)/C=C(\C)c1ccc(C(F)(F)P(=O)(OCOC(=O)C(C)(C)C)OCOC(=O)C(C)(C)C)cc1)C(=O)N1C[C@H]2CC2[C@H]1C(=O)N[C@@H](CCC(N)=O)[C@@H](C)OCc1ccccc1` (stereo partly drawn) [Example 16, (2E)-3-[4-[[bis[(2,2-dimethyl-1-oxopropoxy)methoxy]phosphinyl]difluoromethyl]phenyl]-but-2-enoyl-norleucinyl-(2S,3R,4S)-methanoprolinyl-(4S,5R)-4-amino-5-benzyloxyhexamide], in assay [1], the “EGF-induced increase in Stat3 phosphorylation” value was “effective at inhibiting”. Besides, the “phosphorylation of FAK Tyr861” value in assay [2] is reported as “no reduction; also recorded: do not inhibit”. For the same compound, in assay [3], the “concentration as low as which partial inhibition of STAT3 phosphorylation was seen” value turned out to be 10 nM, the “concentration at which complete inhibition of STAT3 phosphorylation occurred” value came to 500 nM and the “inhibition of Tyr705 phosphorylation of Stat3 (potency in words)” value is listed as “very potent inhibitors”. Further, the “Akt Ser473 phosphorylation after EGF” value in assay [4] was “no effect”. Further, the “growth / viability of NSCLC cell lines” value in assay [5] is “inhibition of growth”. Further, the “Stat5 phosphorylation after EGF” value in assay [6] is on record as “no effect”.

The values above are taken from patent US8841257B2, “Inhibitors of STAT3 and uses thereof” (Board of Regents, The University of Texas System, priority 2009, dated 2014).
